From patent publication US20090170759A1, “NEUROPROTECTIVE PEPTIDES” (priority 2007, published 2009)
“Also recorded” adds a separate entry of the source.

Key:
[1] = test system: PC-12 cells; test: Glutamate toxicity in PC-12 cells (trypan blue exclusion); format: cell-based, rat
Method: […] cells (from a rat Pheochromocytoma) were cultured on poly-D-Lysine coated tissue culture plastic in DMEM containing 10% FBS and 5% Horse serum. To induce the neuronal phenotype in PC-12 cells, serum was removed and the cells were treated with NGF (50 ng/ml). Cells were grown for 7 days in the presence of the NGF then used for experiments.
PC-12 cells were cultured as described above. 24 hr prior to insult, cells were treated with rhEPO at concentrations ranging from 1 pm to 1 nm. On the day of the experiment, cells were exposed to 200 μM glutamate for 30 min. Cells were then washed 2 times with fresh media to remove the glutamate and cultured in fresh media containing NGF but no EPO. After 24 hr cells were assayed for viability using a trypan blue exclusion assay. Briefly, media was removed and the cells were incubated in 0.4% Trypan Blue for 5 min. Cells were then washed gently with PBS, then fixed with 10% formalin. Cell viability was determined by counting the total number of cells vs. the number of trypan blue positive (dead) cells.

[2] = test system: rat cerebral cortical neurons; test: Glutamate toxicity assay in primary cortical cultures; format: cell-based; details: pretreatment 24 h prior to 100 μM glutamate
From the text: Dissociated hippocampal and cortical cell cultures were established from embryonic day 18 rat fetuses as previously described (Mattson et al., 1994). Briefly, fetuses were removed via cesarean section from pregnant moms (Sprague-Dawley) anesthetized with halothane according to the AVMA Panel on Euthanasia. Pups were decapitated and the brains were removed and placed in HEPES-buffered Hank's Balanced Salt solution (HBSS; Gibco). The hippocampi and cortices were dissected out and pooled according to tissue-type. Tissue was trypsinized for 15 min (1 mg/ml trypsin-HBSS; Worthington), rinsed with fresh HBSS, incubated in trypsin inhibitor (1 mg/ml; Sigma) for 5 min, rinsed again with fresh HBSS and then triturated in 1 ml fresh HBSS with a fire-polished glass pipette. Dissociated cells were seeded at 30,000 cells/well onto poly-D-lysine coated 96-well plates (Collaborative BioScience). […]
Cortical cells were seeded at 200,000 cells/dish onto polyethylenimine-coated 35 mm culture dishes. […] Cell survival was measured by counting viable cells in each field pre- and post-experimental treatment. […] Data were expressed as percent of control (vehicle; mean±SD).

“rhEPO: purified, recombinant human EPO (rhEPO), currently formulated and distributed under the trademarks of EPREX, ERYPO, or PROCRIT” was tested, and the “neuroprotective effect at 1 nm, glutamate toxicity” value ([1]; 1 nm) was “no significant effect”, the “cell survival after glutamate (in words)” value ([1]; 1 to 10 pm given 24 hours prior to glutamate (200 um), p<0.001) was “significantly increased cell survival” and the “cell death induced by glutamate toxicity (in words)” value ([1]; 24 hr pre-treatment) was “significant decrease in cell death”. For the same substance, the “peak concentration for the neuroprotective effect, glutamate toxicity” value ([1]; 24 hr pre-treatment, 200 μM glutamate) was 10 pm, the “maximal increase of cell survival over parallel cultures treated with glutamate alone” value [2] was “approximately 200%” and the “neuronal survival after glutamate (in words)” value [2] was “significant increase in neuronal survival; also recorded: protects rat cerebral cortical neurons against glutamate toxicity”.
